The values below come from ChEMBL document CHEMBL1129722, “Synthesis and biological activity of conformationally constrained sialyl Lewis X analogues with reduced carbohydrate character” (Bioorg Med Chem Lett, 1996).

The target of this assay is T1, E-selectin (Homo sapiens, UniProt P16581).
T1 sequence (P16581 whole entry): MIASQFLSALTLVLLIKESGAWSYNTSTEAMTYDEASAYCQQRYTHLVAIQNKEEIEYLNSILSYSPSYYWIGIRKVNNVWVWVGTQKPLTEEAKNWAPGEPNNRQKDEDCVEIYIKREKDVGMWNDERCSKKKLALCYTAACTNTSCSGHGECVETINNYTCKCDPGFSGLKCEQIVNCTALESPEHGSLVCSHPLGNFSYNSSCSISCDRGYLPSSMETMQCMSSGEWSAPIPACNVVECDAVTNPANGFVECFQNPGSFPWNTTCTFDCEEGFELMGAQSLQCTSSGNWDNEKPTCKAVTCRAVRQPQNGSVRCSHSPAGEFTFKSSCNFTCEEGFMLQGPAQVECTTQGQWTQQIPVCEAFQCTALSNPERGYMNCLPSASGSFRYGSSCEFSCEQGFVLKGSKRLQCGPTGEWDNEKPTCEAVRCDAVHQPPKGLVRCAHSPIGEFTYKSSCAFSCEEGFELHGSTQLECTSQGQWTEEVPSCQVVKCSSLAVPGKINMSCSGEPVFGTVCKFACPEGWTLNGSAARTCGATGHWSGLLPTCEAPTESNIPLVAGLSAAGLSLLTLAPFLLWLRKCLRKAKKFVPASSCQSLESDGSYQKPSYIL
The assay can be described thus: Compound was tested for its ability to inhibit the binding to recombinant human Selectin E immobilized on SPA beads of radiolabeled HL60 cell membrane containing sLex. Type of assay: cell membranes, HL-60.

For `C[C@@H]1O[C@@H](OC2CCCCC2O[C@@H]2O[C@@H](CO)[C@H](O)[C@H](OCC(=O)O)[C@@H]2O)[C@@H](O)[C@@H](O)[C@@H]1O` (stereo partly drawn), the IC50 stood at 500 µM.

With `CC(O[C@@H]1O[C@@H](C)[C@@H](O)[C@H](O)[C@@H]1O)C(C)O[C@@H]1O[C@@H](CO)[C@H](O)[C@H](OCC(=O)O)[C@@H]1O` (stereo partly drawn), the IC50 is 2100 µM.

In the case of `C[C@@H]1O[C@@H](O[C@@H]2CCCC[C@H]2O[C@@H]2O[C@@H](CO)[C@H](O)[C@H](OCC(=O)O)[C@@H]2O)[C@@H](O)[C@@H](O)[C@@H]1O`, the IC50 was above 10000 µM.

By IC50 is commonly meant the concentration at which inhibition is half-maximal.
